# Data as given in patent publication US8007836B2, “Cleome spinosa extract used in pharmaceutical preparations and cosmetic compositions” (Pierre Fabre Dermo-Cosmetique, priority 2007, dated 2011).
# Tested on: human hair follicles
# Assay: Growth of cultivated entire human hair follicles from scalp ex vivo, 14 days of culture
# Format: cell-based
# Settings: vs control non-treated follicles, minoxidil concentration not given
# Description: Study of the effect of a Cleome spinosa extract on the growth of cultivated human hair follicles.
# Evaluation of minoxidil, a reference molecule, was conducted in parallel.
# Hair follicles originate from the human scalp from plastic surgery departments of hospitals or clinics (two donors).
# The skin is shaved and washed in 6 baths of antibiotics. The follicles in the anagen phase are recognizable because they are very vascularized, and then isolated from the skin under a binocular magnifier and cleared of fat.
# They are then incubated at 37° C. in 24-well culture dishes in an adequate culture medium containing the products to be tested.
# The growth of the stem of the hair follicle is measured with plotting paper under a binocular magnifier on days 0, 4, 5, 7, 9, 12 or 14.
# The determination of the growth and activity percentages of the hydroalcoholic extract of Cleome spinosa was carried out after 4 or 5, 7 or 8, 12 and 14 days of treatment of the hair follicles as compared with control non-treated follicles.
# Notation: Tx is the time x after treatment • T0 is time 0 of the beginning of the treatment
# The growth percentage is equal to (Tx measurement−T0 measurement)/T0 measurement×100
# The activity of the treatment is calculated in the following way: [(Tx treated measurement−T0 treated measurement)−(Tx control measurement−T0 control measurement)]/(Tx control measurement−T0 control measurement)×100
smiles,measurement,setting,value
"Nc1cc(N2CCCCC2)nc(N)[n+]1[O-] [Minoxidil, 2,4-diamino-6-piperidinopyrimidine-3-oxide]",% of activity,D4/D5 of treatment,55%
same,% of activity,D8/D7 of treatment,41%
same,% of activity,D12 of treatment,21%
same,% of activity,D14 of treatment,17%
